Results published in PubChem BioAssay (NCI).
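Interpolation was linear, between the two tested concentrations surrounding the appropriate level; five concentrations were tested over 48 hours in 96-well plates. GI50 = concentration required for 50% inhibition of growth. TGI marks complete inhibition of growth.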

Key:
Assay in all cases: NCI tumour cell line growth inhibition, 48 h
[1] = system: 786-0 renal
[2] = system: A498 renal
[3] = system: A549 NSCLC
[4] = system: ACHN renal
[5] = system: CAKI-1 renal
[6] = system: CCRF-CEM leukemia
[7] = system: COLO 205 colon
[8] = system: DLD-1 colon
[9] = system: DMS 273 small cell lung
[10] = system: EKVX NSCLC
[11] = system: HCC-2998 colon
[12] = system: HCT-116 colon
[13] = system: HCT-15 colon
[14] = system: HL-60(TB) leukemia
[15] = system: HOP-18 NSCLC
[16] = system: HOP-62 NSCLC
[17] = system: HOP-92 NSCLC
[18] = system: HT29 colon
[19] = system: IGROV1 ovarian
[20] = system: K-562 leukemia
[21] = system: KM12 colon
[22] = system: KM20L2 colon
[23] = system: LOX IMVI melanoma
[24] = system: LXFL 529 NSCLC
[25] = system: M14 melanoma
[26] = system: M19-MEL melanoma
[27] = system: MALME-3M melanoma
[28] = system: MOLT-4 leukemia
[29] = system: NCI-H226 lung
[30] = system: NCI-H23 lung
[31] = system: NCI-H460 lung
[32] = system: NCI-H522 lung
[33] = system: OVCAR-3 ovarian
[34] = system: OVCAR-4 ovarian
[35] = system: OVCAR-5 ovarian
[36] = system: OVCAR-8 ovarian
[37] = system: RPMI-8226 leukemia
[38] = system: RXF 393 renal
[39] = system: RXF-631 renal
[40] = system: SF-268 CNS
[41] = system: SF-295 CNS
[42] = system: SF-539 CNS
[43] = system: SK-MEL-2 melanoma
[44] = system: SK-MEL-28 melanoma
[45] = system: SK-MEL-5 melanoma
[46] = system: SK-OV-3 ovarian
[47] = system: SN12C renal
[48] = system: SNB-19 CNS
[49] = system: SNB-75 CNS
[50] = system: SNB-78 CNS
[51] = system: SR leukemia
[52] = system: SW-620 colon
[53] = system: TK-10 renal
[54] = system: U251 CNS
[55] = system: UACC-257 melanoma
[56] = system: UACC-62 melanoma
[57] = system: UO-31 renal
[58] = system: XF 498 CNS

Compound: CC[C@@]1(O)C(=O)OCc2c1cc1n(c2=O)Cc2cc3c([N+](=O)[O-])c(OC)ccc3nc2-1
- GI50 [1]: < 0.0115 µM
- TGI [1]: 0.0672 µM
- GI50 [2]: 0.184 µM
- TGI [2]: 0.855 µM
- GI50 [3]: 0.0343 µM
- TGI [3]: 2.61 µM
- GI50 [4]: < 0.01 µM
- TGI [4]: 0.0648 µM
- GI50 [5]: 0.0172 µM
- TGI [5]: 0.582 µM
- GI50 [6]: < 0.01 µM
- TGI [6]: 0.0349 µM
- GI50 [7]: 0.529 µM
- TGI [7]: 2.64 µM
- GI50 [8]: 1.54 µM
- TGI [8]: > 100 µM
- GI50 [9]: < 0.01 µM
- TGI [9]: 0.377 µM
- GI50 [10]: 3.03 µM
- TGI [10]: > 77.5 µM
- GI50 [11]: 0.359 µM
- TGI [11]: 2.14 µM
- GI50 [12]: 0.121 µM
- TGI [12]: 1.5 µM
- GI50 [13]: 0.386 µM
- TGI [13]: 3.71 µM
- GI50 [14]: 0.0236 µM
- TGI [14]: 0.196 µM
- GI50 [15]: 0.0816 µM
- TGI [15]: 1.98 µM
- GI50 [16]: < 0.01 µM
- GI50 [17]: 0.375 µM
- TGI [17]: 2.94 µM
- GI50 [18]: 0.224 µM
- TGI [18]: > 100 µM
- GI50 [19]: 0.272 µM
- TGI [19]: 2.32 µM
- GI50 [20]: 0.168 µM
- TGI [20]: > 20.4 µM
- GI50 [21]: 0.514 µM
- TGI [21]: 6.12 µM
- GI50 [22]: 0.262 µM
- TGI [22]: 5.95 µM
- GI50 [23]: 0.0194 µM
- TGI [23]: 0.183 µM
- GI50 [24]: 1.43 µM
- TGI [24]: 8.42 µM
- GI50 [25]: 0.0445 µM
- TGI [25]: 0.635 µM
- TGI [26]: 1.6 µM
- GI50 [27]: 0.374 µM
- TGI [27]: 3.09 µM
- GI50 [28]: < 0.01 µM
- TGI [28]: 0.0835 µM
- GI50 [29]: 0.274 µM
- GI50 [30]: 0.0155 µM
- TGI [30]: 0.175 µM
- GI50 [31]: < 0.01 µM
- TGI [31]: 0.118 µM
- GI50 [32]: 0.0714 µM
- TGI [32]: 2.16 µM
- GI50 [33]: 0.424 µM
- TGI [33]: 1.34 µM
- GI50 [34]: 0.574 µM
- TGI [34]: 3.02 µM
- GI50 [35]: 0.0649 µM
- TGI [35]: 0.629 µM
- GI50 [36]: 0.103 µM
- TGI [36]: 19 µM
- GI50 [37]: 1.38 µM
- TGI [37]: 14.5 µM
- GI50 [38]: 0.12 µM
- TGI [38]: 0.831 µM
- GI50 [39]: 0.311 µM
- TGI [39]: 4.58 µM
- GI50 [40]: 0.0177 µM
- TGI [40]: > 31.8 µM
- GI50 [41]: 0.0101 µM
- TGI [41]: 0.263 µM
- GI50 [42]: < 0.0122 µM
- TGI [42]: 0.121 µM
- GI50 [43]: 0.968 µM
- TGI [43]: 2.61 µM
- GI50 [44]: 0.544 µM
- TGI [44]: 8.16 µM
- GI50 [45]: 0.119 µM
- TGI [45]: 0.285 µM
- GI50 [46]: 0.0481 µM
- TGI [46]: 2.49 µM
- GI50 [47]: < 0.01 µM
- TGI [47]: 0.433 µM
- GI50 [48]: 0.0594 µM
- TGI [48]: 22.2 µM
- GI50 [49]: 0.035 µM
- TGI [49]: 0.405 µM
- GI50 [50]: 2.2 µM
- TGI [50]: > 65.3 µM
- GI50 [51]: < 0.01 µM
- GI50 [52]: 0.171 µM
- TGI [52]: 2.55 µM
- GI50 [53]: 3.58 µM
- TGI [53]: 55.6 µM
- GI50 [54]: < 0.01 µM
- TGI [54]: 0.23 µM
- GI50 [55]: 0.293 µM
- TGI [55]: 2.23 µM
- GI50 [56]: < 0.01 µM
- TGI [56]: 0.134 µM
- GI50 [57]: 0.0845 µM
- TGI [57]: 0.595 µM
- GI50 [58]: 0.508 µM
- TGI [58]: 5.07 µM
